Data reported in ChEMBL document CHEMBL1133800, “Microwave assisted synthesis of N-arylphthalamic acids with hyperlipidemic activity” (2001).

Tests used:
Format in all cases: functional
Mus musculus [1] = species: Mus musculus; assay: Animal body weight was evaluated in Swiss white mice before treatment with the compound
Mus musculus [2] = assay: Animal body weight was evaluated in Swiss white mice treated with 20 mg/kg/day of ip administration for 14 days; details: route intraperitoneal
Mus musculus [3] = species: Mus musculus; assay: Plasma cholesterol level was evaluated in Swiss white mice before treatment with the compound
Mus musculus [4] = assay: Plasma cholesterol level was evaluated in Swiss white mice treated with 20 mg/kg/day of ip administration for 14 days; details: route intraperitoneal
Mus musculus [5] = species: Mus musculus; assay: Plasma triglyceride level was evaluated in Swiss white mice before treatment with the compound
Mus musculus [6] = assay: Plasma triglyceride level was evaluated in Swiss white mice treated with 20 mg/kg/day of ip administration for 14 days; details: route intraperitoneal

Row | Compound | Body weight (Mus musculus [1]) [g] | Body weight (Mus musculus [2]) [g] | Cholesterol (Mus musculus [3]) [mM] | Cholesterol (Mus musculus [4]) [mM] | Triglycerides (Mus musculus [5]) [mM] | Triglycerides (Mus musculus [6]) [mM]
1 | O=C(O)c1ccccc1C(=O)Nc1ccccc1F | 26 | <30 | 3.06 | < 3.4 | 0.94 | < 1.23
2 | O=C(O)c1ccccc1C(=O)Nn1cnnc1 | 35 | 39 | 2.46 | 2.95 | 1.12 | < 1.49
3 | O=C(O)c1ccccc1C(=O)Nc1ccccc1Cl | 26 | <29 | 2.11 | < 2.43 | 1.06 | < 1.32
4 | O=C(O)c1ccccc1C(=O)Nc1nc[nH]n1 | 35 | 38 | 2.45 | 2.78 | 1.14 | < 1.58
5 | O=C(O)c1ccccc1C(=O)Nc1ccccc1 | 28 | 29 | 2.71 | < 3.06 | 1.07 | < 1.3
6 | O=C(O)c1ccccc1C(=O)Nc1cccc(F)c1 | 26 | <29 | 3.02 | < 3.28 | 1.01 | < 1.35
7 | O=C(O)c1ccccc1C(=O)Nc1cccc(Cl)c1 | 24 | <28 | 2.17 | < 2.48 | 1.04 | < 1.28
8 | O=C(O)c1ccccc1C(=O)Nc1ccc(F)cc1 | 20 | <25 | 2.66 | < 3.17 | 1.26 | < 1.48
9 | O=C(O)c1ccccc1C(=O)Nc1ccc(Cl)cc1 | 25 | 28 | 2.3 | < 2.51 | 0.86 | < 1.06
